Data on 3 molecules can be found in patent US9393199B2, “Methods and compositions for localized agent delivery” (Massachusetts Institute of Technology, priority 2008, dated 2016).

The test system of series [1] is lineage−Sca-1+c-kit+ progenitor cells. Kind of series: Reconstitution by hematopoietic progenitor cell grafts in lethally irradiated recipients. The format is in vivo. The settings on record: 1.6 ng TWS119 at the time of transplantation. As to the method:
FIGS. 14A-D. Hematopoietic progenitor cells (referred to in the Figure as HSCs) carrying GSK-3β inhibitor-loaded nanoparticles reconstitute recipient animals with rapid kinetics following bone marrow transplants without affecting multilineage differentiation potential. (A, B) Engraftment kinetics of luciferase-transgenic HSC grafts in lethally-irradiated nontransgenic syngeneic recipients. Mice were treated with a single bolus injection of the GSK-3β inhibitor TWS119 (1.6 ng) on the day of transplantation, an equivalent TWS119 dose encapsulated in HSC-attached DNA-gel nanoparticles, or no exogenous agent. Transplanted mice were imaged for whole-body bioluminescence every 7 days for 3 weeks. Shown are representative IVIS images (A) and whole animal photon counts (B) for 9 mice total/treatment condition. (C) Percentage of donor-derived cells in recipient mice 2 weeks after transplantation of GFP^+ HSCs with or without TWS119. *P<0.001. (D) Average frequency of donor-derived GFP^+ B cells, T cells, and myeloid cells in recipient mice 3 months after transplantation. 5 mice/group were analyzed.
We further examined the utility of this delivery approach in the context of hematopoietic stem cell transplantations. We treated C57Bl/6 F-luc-transgenic mice or C57Bl/6 GFP-transgenic mice with 5-fluorouracil (5-FU, Sigma Aldrich) (150 mg/kg, i.p) and euthanized them 3 days later. […]

Series [2] in a line: Release of cargo from lipid-coated DNA-gel nanoparticles (data not shown). The format is physicochemical. The settings on record: lipid-coated DNA-gel particles ~200 nm.
For series [3] the following is noted: cited from earlier work.
The conditions of series [4]: systemic, delivered orally, humans; cited from earlier work.
Series [5] can be described thus: Kinetics of protein release from lipid-coated PLGA particles in vitro (ELISA of supernatant). The format is physicochemical. The settings on record: complete RPMI 10% FCS, 37° C., by the end of the incubation period (~1 week). As to the method:
FIGS. 5A-C. Protein and TLR ligand incorporation in lipid-coated PLGA nanoparticles. (A) Confocal image (left) and cryoEM image (right) of lipid-coated nanoparticles loaded with fluorescent ova in the particle cores. Note that the particles in the confocal image are artificially aggregated here by drying on a coverslip for imaging. (B) Kinetics of IL-15 release from lipid-coated PLGA particles in vitro in complete medium at 37° C. (C) Bone marrow-derived DCs were incubated with 3 mg/mL lipid-nanoparticles containing 1 mole % or 10 mole % MPLA in the lipid coating, equivalent amounts of soluble MPLA (30 μg/mL or 3 μg/mL), or soluble LPS (1 μg/mL) as a positive control. At 24 hrs, the maturation status of the cells was assessed by flow cytometry analysis of cell surface MHC II, CD80, and CD40 (not shown).
Ova however is a model globular protein and as such it was chosen to illustrate the behavior of other proteins such as interleukin-15 (IL-15) superagonist molecules which can be used to support ACT T cells. […] The kinetics of IL-15 release from the particles was determined by incubating the particles in complete RPMI medium containing 10% FCS at 37° C. with gentle agitation and taking aliquots of the supernatant at staggered timepoints for ELISA analysis of cytokine content. […]

For series [6] the following is noted: systemically injected; cited from earlier work.

Regarding `Nc1cccc(-c2cc3c(Oc4cccc(O)c4)ncnc3[nH]2)c1` [TWS119], the “engraftment kinetics / proliferative reconstitution of progenitor cell grafts” value in series [1] is on record as “did not significantly alter”. Also, the “period of slow release from DNA-gel nanoparticles” value in series [2] was found to be 7 days.
`CC(C)Cn1cnc2c(N)nc3ccccc3c21` [imiquimod]: in series [3], the half-life following injection was approximately 2 h. Moreover, the toxicity entry in series [4] is “dose-limiting toxicity”.
For “IL-15: Interleukin-15, cytokine; encapsulated alone in lipid-coated PLGA particles in b217”, in series [5], the encapsulated cytokine released is approximately 80%. In series [6], the half life is approximately 1 h.
